Values quoted from earlier work in publication PMC9605497, “Potential of Epidermal Growth Factor-like Peptide from the Sea Cucumber Stichopus horrens to Increase the Growth of Human Cells: In Silico Molecular Docking Approach” (Marine Drugs, 2022).

What was measured:
CHO cells = details: ref [76] Zhao et al., cited from earlier work
Description: (§1) The rationale of testing peptide concentrations at 10 nM was based on a study done by Clark et al.. In the study, the EGFR expression in carcinoma cells was prolonged for 10 h when 10 nM of EGF was exerted, as compared to only 4 h of EGFR expression in 0.4 nM EGF. This is supported by another experiment by Zhao et al. where cell proliferation of CHO cells can only be induced when exerted with EGF concentrations below 0.1 ng/mL. In contrast, cell proliferation at higher EGF concentrations (1 to 100 ng/mL) was suppressed. The process of EGF binding to its receptor and the internali ...

HeLa cells = details: ref [77]; cited from earlier work
Description: as §1

carcinoma cells = details: 10 nM EGF; ref [75] Clark et al.; cited from earlier work
Description: as §1

EGFR = details: SPR and AFM, experimental; ref [41] Kuo et al.; read-out: dissociation constant (Kd) of EGF and EGFR complex; cited from earlier work
Excerpt: The values are different because docking is based on the scoring functions used. […] A lower Kd value means dissociation occurs at a slow rate and the binding affinity (Ka) between these ...

human skin model = details: 50 nM, compared to 0.1 nM and 10 nM EGF; ref [18]; cited from earlier work
Excerpt: Despite these nutritional properties that could be indirectly associated with the wound healing benefit of this marine organism, the full potential of sea cucumber as a source of marine therapeutic product remains unexplored and limited to the previous approaches of specific metabolite identification. Among the prospective molecules to be investigated are growth factors and cytokines, which are examples of important mitogens that ensure an effective wound healing process. Several mitogens are involved directly as growth factors in cell proliferation such as epidermal growth factor (EGF) ...

receptors (EGFR) = details: 0.156 to 5 ng/mL biotinylated EGF; ref [46] King et al.; cited from earlier work
Description: The increasing binding activity was determined by both the concentration of biotinylated EGF tested and the number of cells used. In this study, inoculating about 80,000 cells gives a reproducible result as opposed to when lower number of cells was used. Increasing the ligand concentration could improve assessment of the binding signal of Sh-EGFl-1 peptide with human EGFR s ...

| Substance | cell proliferation at higher EGF concentrations (CHO cells; 1 to 100 ng/mL) | EGF concentration inducing cell proliferation (CHO cells; CHO cells) | time for EGF binding and internalization of receptor (HeLa cells) | duration of EGFR expression (carcinoma cells) | Kd (EGFR) | DNA synthesis (human skin model) | absorbance reading (receptors (EGFR)) |
| --- | --- | --- | --- | --- | --- | --- | --- |
| Human EGF: human EGF (chain C) of crystal structure 1IVO; also EGF of cited literature (MNSDSECPLSHDGYCLHDGVCMYIEALDKYACNCVVGYIGERCQYRDLKWWELR; biotin (conjugated with NHS-biotin; sites not stated)) | suppressed | below 0.1 ng/mL | less than 30 min | 10 h | ~177 nM | maximum increase of DNA synthesis | – |
| biotinylated EGF: biotinylated EGF used by King et al. | – | – | – | – | – | – | consistent increases in the absorbance reading |
